Our source for the ED50 and analgesic effect values is US5728885A, “Method of preparing the enantiomers of O-dimethyltramadol” (priority 1996, dated 1998).

Where a name gives a salt, the structure may show the parent alone. Read-outs that look alike come from different tables or passages of the source. Some results are limits rather than exact numbers.

Test [1] has as its system thermal radiation pain (tail flick). The test is described as follows: thermal radiation (tail flick) test on rats (analgesia). It is filed as in vivo, female Sprague Dawley rats. The conditions noted are these: Rattus norvegicus, 20 min, read-out: ED50 in the tail flick test. The text has this:
Testing for analgesia using the tail flick test on rats
The analgesic effectiveness of the compounds to be used according to the invention was investigated in the thermal radiation (tail flick) test on rats using the method of D'Amour and Smith (J. Pharm. Exp. Ther. 72, 74-79 (1941). Female Sprague Dawley rats with a weight of 120-160 g were used for this purpose. The animals were placed individually in test cages and the bases of their tails were exposed to the focused thermal radiation from an electric lamp (Rhema Analgesiemeter for rats). The lamp intensity was adjusted so that the time from switching on the lamp until the sudden twitching away of the tail (latency of pain) was 3-6 seconds for untreated animals. Before the administration of the compounds to be used according to the invention, the animals were tested twice within five minutes and the average value of these measurements was calculated as the pre-test average. The pain measurement was made 20, 40 and 60 minutes after intravenous administration. […]. In order to determine the dosage-dependency, the compounds were administered in doses increasing logarithmically by a factor of 3-5, which included the threshold and the maximum effective dose each time. The ED50 values were determined from the number of analgesic animals by the method of Litchfield and Wilcoxon (J. Pharm. Exp. Ther. 96, 99-113, (1949)). The ED50 was calculated at the effective maximum 20 minutes after intravenous administration of the substance.
A general note: In hot-plate and tail-flick tests a longer latency is read as antinociception.

For test [2], the system named is phenylquinone-induced writhing. The test is described as follows: phenylquinone-induced writhing test on mice (analgesia). It is filed as in vivo, male NMRI mice. The conditions noted are these: Mus musculus, read-out: ED50 in the writhing test. How it is done:
Testing for analgesia using the writhing test on mice
Testing for analgesic effectiveness was performed using the phenylquinone-induced writhing test on mice (modified according to I. C. Hendershot, J. Forsaith, J. Pharmacol. Exp. Ther. 125, 237-240 (1959)). […]. For each dose of substance, groups of 10 animals received, 10 minutes after the intravenous administration of the compounds to be used according to the invention, 0.3 ml per mouse of an 0.02% aqueous solution of phenylquinone (phenylbenzoquinone: manufactured by Sigma, Deisenhofen; solution prepared with the addition of 5 % ethanol and kept on a water bath at 45° C.) administered intraperitoneally. The animals were placed individually in observation cages, and the number of pain-induced stretching movements (so-called writhing reactions=straightening of the body with stretching of the rear extremities) 5-20 minutes after the administration of phenylquinone was counted by means of a push-button counter. The ED50 values were calculated with a 95% confidence limit by means of regression analysis (evaluation program supplied by Martens EDV Service, Eckental) from the dose-dependent decrease in the writhing reactions, by comparison with control groups which were tested in parallel and which were treated with phenylquinone only.
(An intraperitoneal irritant provokes the stretching counted in writhing tests.)

A short description of test [3]: analgesic effect (statement in words). It is filed as in vivo. As to conditions: on its own or in combination with tramadol.
Setting [4] is: intravenous, 20 minutes after administration, >150 % of pre-test average latency, rats.
The mark [5] stands for this setting: intravenous, phenylquinone i.p. 10 minutes after compound, writhing counted 5-20 minutes after phenylquinone, mice.

One may read the ED50 as the dose that gives a 50% effect, or the effect in half of the subjects. As for `CN(C)C[C@@H]1CCCC[C@@]1(O)c1cccc(O)c1` [(-)-enantiomer of O-demethyltramadol hydrochloride, (-)-(1S, 25)-3-(2-dimethylaminomethyl-1-hydroxy-cyclohexyl)-phenol hydrochloride], the figures for the ED50 in test [1] (setting [4]) and in test [2] (setting [5]) were over 10 mg/kg and 6.6 mg/kg, respectively. Consider `CN(C)C[C@H]1CCCC[C@]1(O)c1cccc(O)c1` (relative stereo) [O-demethyltramadol], for which the analgesic effect result in test [3] is listed as “high analgesic effect”. `COc1cccc([C@@]2(O)CCCC[C@@H]2CN(C)C)c1.Cl` (racemic) [racemic tramadol hydrochloride, (1RS, 2RS)-2-dimethylaminomethyl-1-(3-methoxy-phenyl)-cyclohexanol hydrochloride, reference compound]: the ED50 in test [1] (iv) was found to be 6.47 mg/kg; in test [2] (iv), 3.59 mg/kg. Regarding `CN(C)C[C@H]1CCCC[C@]1(O)c1cccc(O)c1` [(+)-enantiomer of O-demethyltramadol hydrochloride, (+)-(1R, 2R)-3-(2-dimethyl-aminomethyl-1-hydroxy-cyclohexyl)-phenol hydrochloride], the ED50 in test [1] (setting [4]) is 1.01 mg/kg; in test [2] (setting [5]) it was 0.489 mg/kg.
